# Columns and labels:
# [1] = system: SK-RC-52.hFAP tumors; assay: Therapeutic efficacy in SK-RC-52.hFAP tumor bearing mice; assay type: in vivo, mouse (athymic Balb/c AnNRj-Foxn1); conditions: single administration, 250 nmol/kg, 250 MBq/kg
# Protocol: SK-RC-52.hFAP were grown to 80% confluence in RPMI-1640 with 10% fetal bovine serum (FBS) and 1% antibiotic-antimycotic and detached with Trypsin-EDTA (ethylenediaminetetraacetic acid) 0.05%. Tumor cells were resuspended in Hanks' Balanced Salt Solution medium. Aliquots of 5 million cells (100 μL of suspension) were injected subcutaneously in the right flank of female athymic Balb/c AnNRj-Foxn1 mice (6 to 8 wk of age).
# Prior to the therapy studies, precursors (25 nmol) were dissolved in 25 μL of milliQ water, then sodium acetate buffer (75 μL, 1 M in water) and 25, 75 or 150 MBq of ^177Lu solution were added. The mixture was heated at 90 °C for 1 minutes followed by dilution with 400 μL of PBS to afford a final volume of 500 μL (5 doses of 100 μL each). […]
# The anti-cancer efficacy of ^177Lu-ESV6, ^177Lu-Bi-ESV6 and ^177Lu-Tri-ESV6 was assessed in athymic Balb/c AnNRj-Foxn1 mice bearing SK-RC-52.hFAP tumor in the right flank. ^177Lu-ESV6, ^177Lu-Bi-ESV6 or ^177Lu-Tri-ESV6 were intravenously administered at a dose of 250 nmol/kg, 250 MBq/kg (single administration on day 9 after tumor implantation). […] Body weight of the animals and tumor volume were daily measured and recorded. Tumor dimensions were measured with an electronic caliper and tumor volume was calculated with the formula (long side, mm)×(short side, mm)×(short side, mm)×0.5. […]
# [2] = Determination of Log D7.4 (1-octanol/PBS); assay type: physicochemical; conditions: 1-octanol/PBS pH 7.4; 177Lu-labeled
# Protocol: The lipophilicity of ^177Lu-ESV6, ^177Lu-Bi-ESV6, ^177Lu-Tri-ESV6 and ^177Lu-FAP-2286 was determined as follows. 100 μL aliquots of the radioligand (~1 MBq) in PBS buffer were added to PBS buffer (500 μL, pH 7.4) and 1-octanol (600 μL). The two-layer mixture were vigorously shaken for 10 minutes on a vortex mixer and then centrifuged at 700 rpm for 5 min to facilitate the separation. 100 μL aliquots of both layers were measured in a Packard Cobra Gamma Counter and the partition coefficient was determined by dividing cpm (octanol) by cpm (PBS) and indicated as Log D7.4. • Log D7.4 (^177Lu-ESV6): −4.13 • Log D7.4 (^177Lu-Bi-ESV6): −3.75 • Log D7.4 (^177Lu-Tri-ESV6): −3.10 • Log D7.4 (^177Lu-FAP-2286): −3.05
# [3] = system: SK-RC-52.hFAP tumors; assay: Dose escalation / dose optimization for radiotherapeutic applications; assay type: in vivo, mouse (female athymic Balb/c AnNRj-Foxn1); conditions: 24 h
# Protocol: Prior to the dose optimization study for radiotherapeutic applications, precursors (0.24 to 180 nmol) were dissolved in milliQ water and diluted with sodium acetate (1 M in water, pH=4.5). ^177Lu solution (4 MBq) were added and the mixture was heated at 90 °C for 10 minutes, followed by dilution with PBS to achieve final volume of 400 μL (4 doses of 100 μL each).
# Female athymic Balb/c AnNRj-Foxn1 mice bearing subcutis SK-RC-52.hFAP tumors were injected intravenously with eight different doses of ^177Lu-Tri-ESV6-DOTAGA ranging from 3 nmol/kg to 2250 nmol/kg. The mice were sacrificed after 24 h and tumor and healthy organs were harvested and measured with a gamma counter. Since the best tumor to organ ratios are obtained with high doses ranging between 90 and 250 nmol/kg, we anticipate that the ideal dose in human patients for radiotherapeutic applications will be between 1 and 3 milligram per patient. e) Therapeutic efficacy evaluation in tumor bearing mice in dose escalation and in combination with L19-IL2
SMILES,"therapeutic activity (tumor volume), in words [1]",Log D7.4 [2],"% ID/g in tumor, in words ([3]; highest doses (>90 nmol/kg))","uptake in healthy organs, in words ([3]; lowest doses (<10 nmol/kg))"
"N#C[C@@H]1CC(F)(F)CN1C(=O)CNC(=O)c1ccnc2c(NC(=O)CCC(=O)NCCNC(=O)CCOCC(COCCC(=O)NCCNC(=O)CCC(=O)Nc3cccc4c(C(=O)NCC(=O)N5CC(F)(F)C[C@H]5C#N)ccnc34)(COCCC(=O)NCCNC(=O)CCC(=O)Nc3cccc4c(C(=O)NCC(=O)N5CC(F)(F)C[C@H]5C#N)ccnc34)NC(=O)CCC(C(=O)O)N3CCN(CC(=O)O)CCN(CC(=O)O)CCN(CC(=O)O)CC3)cccc12 (stereo partly drawn) [Tri-ESV6-DOTAGA, 2,2′,2″-(10-(19-carboxy-1-((4-((2-((S)-2-cyano-4,4-difluoropyrrolidin-1-yl)-2-oxoethyl)carbamoyl)quinolin-8-yl)amino)-14,14-bis((3-((2-(4-((4-((2-((S)-2-cyano-4,4-difluoropyrrolidin-1-yl)-2-oxoethyl)carbamoyl)quinolin-8-yl)amino)-4-oxobutanamido)ethyl)amino)-3-oxopropoxy)methyl)-1,4,9,16-tetraoxo-12-oxa-5,8,15-triazanonadecan-19-yl)-1,4,7,10-tetraazacyclododecane-1,4,7-triyl)triacetic acid]",remarkable therapeutic activity,–,–,–
"N#CC1CC(F)(F)CN1C(=O)CNC(=O)c1ccnc2c(NC(=O)CCC(=O)NCCCCC(NC(=O)CCC(=O)Nc3cccc4c(C(=O)NCC(=O)N5CC(F)(F)CC5C#N)ccnc34)C(=O)NCCNC(=O)CCC(C(=O)O)N3CCN(CC(=O)[O-])CCN(CC(=O)[O-])CCN(CC(=O)[O-])CC3)cccc12.[177Lu+3] (stereo not drawn) [^177Lu-Bi-ESV6-DOTAGA, reference compound]",–,−3.75,–,–
"N#C[C@@H]1CC(F)(F)CN1C(=O)CNC(=O)c1ccnc2c(NC(=O)CCC(=O)NCCNC(=O)CCC(C(=O)O)N3CCN(CC(=O)[O-])CCN(CC(=O)[O-])CCN(CC(=O)[O-])CC3)cccc12.[177Lu+3] (stereo partly drawn) [^177Lu-ESV6-DOTAGA, reference compound]",–,−4.13,–,–
N#CC1CC(F)(F)CN1C(=O)CNC(=O)c1ccnc2c(NC(=O)CCC(=O)NCCNC(=O)CCOCC(COCCC(=O)NCCNC(=O)CCC(=O)Nc3cccc4c(C(=O)NCC(=O)N5CC(F)(F)CC5C#N)ccnc34)(COCCC(=O)NCCNC(=O)CCC(=O)Nc3cccc4c(C(=O)NCC(=O)N5CC(F)(F)CC5C#N)ccnc34)NC(=O)CCC(C(=O)O)N3CCN(CC(=O)[O-])CCN(CC(=O)[O-])CCN(CC(=O)[O-])CC3)cccc12.[177Lu+3] (stereo not drawn) [^177Lu-Tri-ESV6-DOTAGA],–,−3.10,drops,partially uptaken in healthy organs
